Tests used:
[1] = target: Cdk6/CyclinD3 (Homo sapiens, UniProt Q00534); assay: Cdk6 kinase inhibition assay (33P-ATP filter plate, Rb substrate); assay type: biochemical; conditions: recombinant Cdk6/CyclinD3, Rb substrate, 25 μM ATP, 1 hour room temperature; read-out: Cdk 6 IC50
Protocol: (§1) The Cdk4 and Cdk6 inhibitory activity of the compounds is measured with a kinase inhibition assay using recombinant Cdk4/CyclinD1 or Cdk6/CyclinD3 protein complexes. The protein substrate used in the assay is the retinoblastoma protein (Rb). The kinase reactions are carried out in a 96-well filter plate (MSDV N6B50, Millipore). Compounds are serially diluted in kinase buffer (20 mM Tris-HCl, pH 7.4, 50 mM NaCl, 1 mM DTT, 1 mg/ml BSA) and added to the reaction mixture containing 2.5 ng/ml Cdk4/CyclinD1 or Cdk6/CyclinD3, 25 μM ATP, 10 μCi/ml [^33P]-ATP, 0.1 μg/ml Rb in the kinase buffer. The mixture is incubated at room temperature for 1 hour and the proteins precipitated with an equal volume of 20% TCA. The plates are washed with 10% TCA according to the manufacturer's instruction and dried at room temperature. The amount of the phosphorylated Rb is determined with a TopCount (PerkinElmer). The IC50 of a compound is determined by nonlinear regression curve fitting using software program Prism 5 (GraphPad Software).

[2] = target: Cdk4/CyclinD1 (Homo sapiens, UniProt P11802); assay: Cdk4 kinase inhibition assay (33P-ATP filter plate, Rb substrate); assay type: biochemical; conditions: recombinant Cdk4/CyclinD1, Rb substrate, 25 μM ATP, 1 hour room temperature; read-out: Cdk 4 IC50
Protocol: as §1

Chain of Cdk4/CyclinD1 (P11802 whole entry): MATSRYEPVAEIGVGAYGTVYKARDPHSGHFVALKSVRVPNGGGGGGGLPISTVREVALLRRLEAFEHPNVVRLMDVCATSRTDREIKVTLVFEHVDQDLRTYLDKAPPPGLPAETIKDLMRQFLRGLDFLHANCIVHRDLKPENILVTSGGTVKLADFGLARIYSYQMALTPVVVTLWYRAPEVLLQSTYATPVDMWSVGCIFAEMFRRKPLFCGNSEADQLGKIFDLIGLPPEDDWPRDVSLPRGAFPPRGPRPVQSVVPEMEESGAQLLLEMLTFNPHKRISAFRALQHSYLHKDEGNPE
Chain of Cdk4/CyclinD1 (P24385 whole entry partner): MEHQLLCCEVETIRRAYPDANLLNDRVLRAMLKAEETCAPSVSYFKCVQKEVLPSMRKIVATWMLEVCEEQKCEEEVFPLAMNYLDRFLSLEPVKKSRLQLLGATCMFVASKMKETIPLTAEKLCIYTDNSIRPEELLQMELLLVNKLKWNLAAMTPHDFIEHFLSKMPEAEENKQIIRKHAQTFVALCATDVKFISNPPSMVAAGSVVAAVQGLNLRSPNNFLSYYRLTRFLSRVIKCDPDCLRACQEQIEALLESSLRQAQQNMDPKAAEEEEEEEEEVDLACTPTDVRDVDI
Chain of Cdk6/CyclinD3 (Q00534 whole entry): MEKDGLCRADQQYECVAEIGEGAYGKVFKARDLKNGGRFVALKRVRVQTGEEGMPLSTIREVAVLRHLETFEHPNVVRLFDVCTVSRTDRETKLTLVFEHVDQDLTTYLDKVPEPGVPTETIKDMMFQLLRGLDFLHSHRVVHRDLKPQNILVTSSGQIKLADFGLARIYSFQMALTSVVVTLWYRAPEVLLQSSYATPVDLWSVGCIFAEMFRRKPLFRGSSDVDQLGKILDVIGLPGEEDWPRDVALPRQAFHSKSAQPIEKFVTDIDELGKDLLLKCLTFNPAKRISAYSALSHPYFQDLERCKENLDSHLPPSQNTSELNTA
Chain of Cdk6/CyclinD3 (P30281 whole entry partner): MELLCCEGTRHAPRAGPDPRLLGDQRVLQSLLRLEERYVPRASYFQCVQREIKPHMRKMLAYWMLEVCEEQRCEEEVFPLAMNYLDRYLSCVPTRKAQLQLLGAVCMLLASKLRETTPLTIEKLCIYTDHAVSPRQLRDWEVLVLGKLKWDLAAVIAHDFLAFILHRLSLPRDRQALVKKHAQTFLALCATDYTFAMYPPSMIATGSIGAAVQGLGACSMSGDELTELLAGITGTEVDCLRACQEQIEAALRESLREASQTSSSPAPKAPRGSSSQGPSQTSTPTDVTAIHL

Structure (SMILES)	IC50 [1]	IC50 [2]
OC1CCC2(CC1)Oc1ncccc1-c1cnc(Nc3ccc(N4CCNCC4)cn3)nc12 (mixture of isomers) [Example 40]	0.033 µM	0.084 µM
CC1(C)CC2(CCO1)Oc1ncccc1-c1cnc(Nc3ccc(N4CCNCC4)cc3)nc12 (racemic) [Example 35, (racemic)-2,2-dimethyl-N-(4-(1-piperazinyl)phenyl)-2,3,5,6-tetrahydrospiro[pyran-4,5′-pyrido[3′,2′:5,6]pyrano[3,4-d]pyrimidin]-3′-amine]	0.06 µM	0.077 µM
CC1(C)C=CC2(CC1)c1cnccc1-c1cnc(Nc3ccc(N4CCNCC4)cc3)nc12 (racemic) [Example 44, (racemic)-4,4-dimethyl-N-(4-(1-piperazinyl)phenyl)spiro[cyclohex-2-ene-1,9′-pyrido[4′,3′:3,4]cyclopenta[1,2-d]pyrimidin]-2′-amine]	0.027 µM	0.0008 µM
CN1CCN(c2ccc(Nc3ncc4c(n3)C3(CCCCC3)Oc3ccccc3-4)cc2)CC1 [Example 3, N-(4-(4-methyl-1-piperazinyl)phenyl)spiro[chromeno[3,4-d]pyrimidine-5,1′-cyclohexan]-3-amine]	0.0142 µM	0.0142 µM
c1ccc2c(c1)OC1(CCCC1)c1nc(Nc3ccc(N4CCNCC4)cn3)ncc1-2 [Example 15, N-(5-(1-piperazinyl)-2-pyridinyl)spiro[chromeno[3,4-d]pyrimidine-5,1′-cyclopentan]-3-amine]	0.0135 µM	0.084 µM
CS(=O)(=O)c1cccc2c1OC1(CCCCC1)c1nc(Nc3ccc(N4CCNCC4)cn3)ncc1-2 [Example 23, 7-(methylsulfonyl)-N-(5-(1-piperazinyl)-2-pyridinyl)spiro[chromeno[3,4-d]pyrimidine-5,1′-cyclohexan]-3-amine]	2.62 µM	2.85 µM
c1cnc2c(c1)OC1(CCOCC1)c1nc(Nc3ccc(N4CCNCC4)cc3)ncc1-2 [Example 25, N-(4-(1-piperazinyl)phenyl)-2,3,5,6-tetrahydrospiro[pyran-4,6′-pyrido[2′,3′:5,6]pyrano[3,4-d]pyrimidin]-8′-amine]	0.54 µM	0.33 µM
CC1(C)CCC2(CC1)Oc1ncccc1-c1cnc(Nc3ccc(N4CCNCC4)cn3)nc12 [Example 27, 4,4-dimethyl-N-(5-(1-piperazinyl)-2-pyridinyl)spiro[cyclohexane-1,5′-pyrido[3′,3′:5,6]pyrano[3,4-d]pyrimidin]-3′-amine]	0.068 µM	0.074 µM
c1cnc2c(c1)-c1cnc(Nc3ccc(N4CCNCC4)cc3)nc1C1(CCCCC1)O2 [Example 29, N-(4-(1-piperazinyl)phenyl)spiro[cyclohexane-1,5′-pyrido[3′,2′:5,6]pyrano[3,4-d]pyrimidin]-3′-amine]	0.0011 µM	0.0059 µM

Continued, values first:

IC50 [1]	IC50 [2]	Structure (SMILES)
0.205 µM	0.0146 µM	CN(C)C1CCN(c2ccc(Nc3ncc4c(n3)C3(C=CC(C)(C)CC3)c3cnccc3-4)nn2)CC1 (racemic) [Example 76, (racemic)-4,4-dimethyl-N-(6-(4-(dimethylamino)piperidin-1-yl)-pyridazin-3-yl)spiro[cyclohex-2-ene-1,9′-pyrido[4′,3′:3,4]cyclopenta[1,2-d]pyrimidin]-2′-amine]
0.266 µM	0.044 µM	O=C(c1csc(Nc2ncc3c(n2)C2(CCCCC2)c2cnccc2-3)n1)N1CCNCC1 [Example 48, N-(4-(1-piperazinylcarbonyl)-1,3-thiazol-2-yl)spiro[cyclohexane-1,9′-pyrido[4′,3′:3,4]cyclopenta[1,2-d]pyrimidin]-2′-amine]
	0.668 µM	CC1(C)CCc2cnc(Nc3ccc(N4CCNCC4)cc3)nc21 [Example 49, 7,7-dimethyl-N-(4-(1-piperazinyl)phenyl)-6,7-dihydro-5H-cyclopenta[d]pyrimidin-2-amine]
0.081 µM	0.0562 µM	c1ccc2c(c1)-c1cnc(Nc3ccc(N4CCNCC4)cc3)nc1C21CCNCC1 [Example 50, N-(4-(1-piperazinyl)phenyl)spiro[indeno[2,1-d]pyrimidine-9,4′-piperidin]-2-amine]
	0.41 µM	c1cc2c(cn1)C1(CCOCC1)c1nc(Nc3ccc(N4CCNCC4)cn3)ncc1-2 [Example 63, N-(5-(1-piperazinyl)-2-pyridinyl)-2,3,5,6-tetrahydrospiro[pyran-4,9′-pyrido[4′,3′:3,4]cyclopenta[1,2-d]pyrimidin]-2′-amine]
	1.14 µM	O=C1NC2(CCCCC2)c2nc(Nc3ccc(N4CCNCC4)cc3)ncc21 [Example 68, 2′-((4-(1-piperazinyl)phenyl)amino)spiro[cyclohexane-1,7′-pyrrolo[3,4-d]pyrimidin]-5′(6′H)-one]
0.51 µM	0.71 µM	CC1CC(O)C2(CC=CC2)c2nc(Nc3ccc(N4CCNCC4)cn3)ncc21 [Example 71, (7S)-5′-methyl-2′-((5-(1-piperazinyl)-2-pyridinyl)amino)-6′,7′-dihydro-5′H-spiro[cyclopent-3-ene-1,8′-quinazolin]-7′-ol]
	2.5 µM	CC1=CC(=O)C2(CCCC2)c2nc(Nc3ccc(N4CCNCC4)cn3)ncc21 [Example 73, 5′-methyl-2′-((5-(1-piperazinyl)-2-pyridinyl)amino)-7′H-spiro[cyclopentane-1,8′-quinazolin]-7′-one]
1.8 µM	3.5 µM	C[C@@H]1CC(=O)C2(CC=CC2)c2nc(Nc3ccc(N4CCNCC4)cn3)ncc21 [Example 74, (5′R)-5′-methyl-2′-((5-(1-piperazinyl)-2-pyridinyl)amino)-5′,6′-dihydro-7′H-spiro[cyclopent-3-ene-1,8′-quinazolin]-7′-one]
